From patent US20090011974A1, “Scavenger Receptor B1 (Cla-1) Targeting for the Treatment of Infection, Sepsis and Inflammation” (priority 2002, published 2009)
Where two headings read alike, the source gives them in different places.

Assays:
[1] = target: T1, CLA-1 (Homo sapiens, UniProt Q8WTV0); assay: 125I-HDL binding and HDL-CE uptake in CLA-1 stably transfected HeLa cells
T1 construct: using the expression plasmid pTRE2 (Clontech, Pal Alto, Calif.), encoding a CLA-1 protein (pTRE2-CLA-1); expressed in transfected cells; host or cells: HeLa (Tet-off) cells (Clontech), stably co-transfected with pTRE2-CLA-1 and pTK-Hyg and selected with hygromycin
T1 sequence (Q8WTV0 1-509 isoform Q8WTV0-2): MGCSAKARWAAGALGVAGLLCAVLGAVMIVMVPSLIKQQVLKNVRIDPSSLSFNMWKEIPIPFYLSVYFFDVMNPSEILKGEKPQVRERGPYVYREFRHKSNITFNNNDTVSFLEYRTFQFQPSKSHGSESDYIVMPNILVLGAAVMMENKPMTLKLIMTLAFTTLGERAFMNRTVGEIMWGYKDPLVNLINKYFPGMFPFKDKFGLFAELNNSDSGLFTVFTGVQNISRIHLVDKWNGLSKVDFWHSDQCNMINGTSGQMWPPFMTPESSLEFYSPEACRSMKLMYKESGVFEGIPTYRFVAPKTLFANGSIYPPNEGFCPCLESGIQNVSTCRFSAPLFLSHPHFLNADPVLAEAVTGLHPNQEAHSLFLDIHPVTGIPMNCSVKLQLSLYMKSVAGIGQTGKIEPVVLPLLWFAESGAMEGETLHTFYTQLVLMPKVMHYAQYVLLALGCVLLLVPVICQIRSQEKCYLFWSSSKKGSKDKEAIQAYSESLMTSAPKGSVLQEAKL
Method: CLA-1 Overexpression HeLa cells. HeLa (Tet-off) cells (Clontech, Pal Alto, Calif.) are grown in DMEM (Invitrogen), supplemented with 10% fetal calf serum, 2 mM glutamine, 100 IU/ml of penicillin, 100 μg/ml of streptomycin, and 100 μg/ml of G418. Cells were transfected with FuGENE-6 (Roche Diagnostics), using the expression plasmid pTRE2 (Clontech, Pal Alto, Calif.), encoding a CLA-1 protein (pTRE2-CLA-1). Cells were co-transfected with pTRE2-CLA-1 and pTK-Hyg (Clontech, Pal Alto, Calif.), using a 1:20 ratio, and selected with 400 μg/ml of hygromycin. Hygromycin resistant cells were screened for the expression of the CLA-1 protein by utilizing rabbit anti-SR-BI/CLA-1 (Novus Biological, Inc) by Western blotting.
HDL-Binding And Cholesteryl Oleoyl Uptake Assays. Saturation binding experiments are performed at 4° C. using ^125I-HDL concentrations between 1.25 and 40 μg/ml. […] After a 2 hr-incubation on ice, specific binding is determined as reported by Bocharov, A. V. et al. (2001) (“CHARACTERIZATION OF A 95 KDA HIGH AFFINITY HUMAN HIGH DENSITY LIPOPROTEIN-BINDING PROTEIN,” Biochemistry 40:4407-4416).
HDL-[^3H]CE uptake experiments are performed in a serum free DMEM containing 0.2% BSA. […] Specific uptake is determined as the difference between total and nonspecific uptake.

[2] = test system: IL-1β; assay: RT-PCR of IL-1β mRNA in RAW cells exposed to LPS preparations; assay type: cell-based, mouse; settings: 10 ng/ml, 24 h, RAW cells
Method: (§1) Cell culture and treatment.
(§2) RNA isolation and cDNA preparation. The total RNA of cultured cells is isolated and purified using Trizol reagent (Gibco BRL, Grand Island, N.Y.) according to the manufacturer's protocol. The concentration and quality of RNA were determined by UV absorbance at 260 and 280 nm. To prepare cDNA, total RNA (3 μg) is added to a mixture containing the following: 6 μl of 5× first-strand buffer (75 mM KCl, 50 mM Tris-HCl [pH 8.3], 3 mM MgCl2), 1.5 μl of deoxynucleoside triphosphates (10 mM [each] dATP, dCTP, dTTP, and dGTP), 1.5 μl of 0.0156 U (0.4 μg) of random hexamers, and 0.2 U of Moloney murine leukemia virus reverse transcriptase (all from Gibco BRL, Gaithersburg, Md.); 0.004 U of RNasin (Promega, Madison, Wis.); and RNase-free water to a final volume of 30 μl per 3 μg of cDNA. Samples are incubated at 37° C. for 60 min. Preliminary experiments are undertaken to achieve optimal conditions for amplifying mRNA for each of the gene products.
Reverse transcription-PCR (RT-PCR). […]
(§3) For the densitometry analysis, the intensities of the bands are measured with the Gel-Pro Analyzer 3.0 computer program and normalized with GADPH intensity.

[3] = test system: SR-BI/CLA-1; assay type: cell-based, mouse; settings: 10 ng/ml, 24 h, RAW cells
Method: as §1, §2
Reverse transcription-PCR (RT-PCR). A mixture of 37.2 μl of RNase-free water, 5 μl of 10× reaction buffer, and 0.5 μl (5 U) of AmpliTaq Gold DNA polymerase (Applied Biosystems, Roche Molecular Systems, Inc., Branchburg, N.J.), sense and antisense primers (1 μl each), and 0.3 μl (3 μCi) of [α-^32P]dCTP (Amersham Pharmacia Biotech, San Diego, Calif.) is vortexed, and 46 μl is aliquoted into each tube, containing 4 μl of cDNA, and overlaid with 50 μl of mineral oil (Sigma Chemical Co.). cDNA is amplified in a Perkin-Elmer (Norwalk, Conn.) System 2400 DNA thermal cycler, with denaturation for 1 min at 94° C., annealing for 1 min at 50° C., and extension for 2 min at 72° C. for GADPH (glyceraldehyde-3-phosphate dehydrogenase) (19 cycles), ABCA1 (28 cycles), SR-BI/CLA-1, and interleukin-1 [3 (IL-1β (27 cycles). The primers used in these analyses are as follows: GADPH, (SEQ ID NO:1) 5′-[…]-3′ and (SEQ ID NO:2) 5′-[…]-3′; SR-BI/CLA-1, (SEQ ID NO:3) 5′-CCA […] GGC TTC TGC-3′ and (SEQ ID NO:4) 5′-CTG AAT GGC CTC CTT ATC C-3′; ABCA1, (SEQ ID NO:5) 5′-CAACTACAAAGCCCTCTTTG-3′ and (SEQ ID NO:6) 5′-CTTGGCTGTTCTCCATGAAG-3′; and IL-1β, (SEQ ID NO:7) 5′-CTG AAA GCT CTC CAC CTC-3′ and (SEQ ID NO:8) 5′-GTG CTG ATG TAC CAG TTG-3′.
as §3

[4] = target: T1, CLA-1; assay type: binding; settings: 100× excess unlabeled ligand, CLA-1 overexpressing and mock-transfected cells
Method: The lipopolysaccharide 0111:B4 (Sigma) is iodinated as reported by Ulevitch, R J. (1978) (“THE PREPARATION AND CHARACTERIZATION OF A RADIO IODINATED BACTERIAL LIPOPOLYSACCHARIDE,” Immunochemistry 15:157-164). […] After a 2-hr-incubation on ice, the cells are rinsed with ice-cold HBSS and utilized for radioactivity measurements as reported by Bocharov, A. V. et al. (2001) (“CHARACTERIZATION OF A 95 KDA HIGH AFFINITY HUMAN HIGH DENSITY LIPOPROTEIN-BINDING PROTEIN,” Biochemistry 40:4407-4416). Specific binding is determined as the difference between total and non-specific binding, and normalized by protein content.
HeLa cells grown until 70% confluence in DMEM with 10% FCS are washed with PBS and cultured for 24 hr in serum-free DMEM. […] After washing with ice-cold PBS, the cells are hydrolyzed in 1 N NaOH. Radioactivity is counted in an LKB Wallac Ultragamma counter.

[5] = target: T2, CLA-1 (CD36 and LIMPII Analogous-1), human scavenger receptor class B type I (human, UniProt Q8WTV0 1-552); assay: confocal microscopy of Alexa 568-labelled peptide uptake, CLA-1 HeLa against mock HeLa
T2 construct: whole, on cells; Target is CLA-1 on stably transfected HeLa cells, compared with mock-transfected HeLa cells, which carry a low endogenous level of CLA-1; also called SR-BI/CLA-1; human SR-BI
T2 sequence (looked up): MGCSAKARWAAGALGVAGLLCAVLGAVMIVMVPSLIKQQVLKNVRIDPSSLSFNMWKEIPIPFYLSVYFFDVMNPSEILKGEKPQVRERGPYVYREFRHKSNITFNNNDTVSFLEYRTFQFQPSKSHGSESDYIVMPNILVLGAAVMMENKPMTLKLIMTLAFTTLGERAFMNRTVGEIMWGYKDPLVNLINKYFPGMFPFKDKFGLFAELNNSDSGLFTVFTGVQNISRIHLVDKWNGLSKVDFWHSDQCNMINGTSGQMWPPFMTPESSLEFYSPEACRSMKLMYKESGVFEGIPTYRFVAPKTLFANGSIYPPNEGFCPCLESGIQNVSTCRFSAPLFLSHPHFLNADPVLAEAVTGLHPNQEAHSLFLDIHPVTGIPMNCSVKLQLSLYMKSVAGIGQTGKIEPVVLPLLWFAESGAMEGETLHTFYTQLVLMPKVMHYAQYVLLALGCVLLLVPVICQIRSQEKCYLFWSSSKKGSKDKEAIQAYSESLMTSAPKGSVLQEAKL

**Q.** Which “competition for 125I-HDL-binding to CLA-1 overexpressing human HeLa cells” value [1] does the source give for lipid A here?
**A.** The value was “all competed”.

**Q.** monophosphoryllipid A [MPLA] was tested. Which “potency for IL-1β gene induction relative to Re595 LPS or DPLA” value [2] did it give?
**A.** Its value is “approximately one-half”.

**Q.** And the “activity as modulator of SR-BI, ABCA1 and IL-1β gene expression compared with other LPS preparations” value [3]?
**A.** Its value is “decreased activity compared to the other LPS derivatives”.

**Q.** And the “relative activities for the suppressive effect on SR-BI/CLA-1 and ABCA1 expression and SR-BI/CLA-1 protein expression” value [3]?
**A.** The value was “LPS (Re595)>LPS (0111:B4)>DPLA>MPLA”.

**Q.** And the “activity as modulator of SR-BI, ABCA1 and IL-1β gene expression compared with other LPS preparations” value ([3]; listed as Re595 MPLA)?
**A.** The value was “less potent modulator”.

**Q.** What about the “competition of unlabelled ligands against 125I-LPS (0111:B4)” value [4] of the same molecule?
**A.** Its value is “compete against iodinated LPS in both cell lines”.

B1: 18A (peptide)
peptide: DWLKAFYDKVAEKLKEAF
notes: Synthetic single class A amphipathic helix; also called 18PA; L18PA
**Q.** Does B1 bind [5]?
**A.** Result: no binding
